Assays:
[1] = biological target: T1, BRD9 bromodomain (Flag-BRD9 P133-K239; Swiss Prot Q9H8M2) (Homo sapiens, UniProt Q9H8M2); experiment: BRD9 Bromodomain TR-FRET Competition Binding Assay; details: competition with biotinylated BRD9 ligand; 90 minutes at room temperature
T1 construct: His-Flag-BRD9 (P133-K239); Swiss Prot Q9H8M2; His6 with TEV site (mgsshhhhhhenlyfq/) (N, cleaved yes); made in house
T1 sequence (Q9H8M2 133-239): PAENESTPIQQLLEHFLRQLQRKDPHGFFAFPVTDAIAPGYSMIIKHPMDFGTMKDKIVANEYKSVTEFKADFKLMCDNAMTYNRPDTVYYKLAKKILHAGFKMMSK
Protocol: Procedure: His-Flag-BRD9 (P133-K239; Swiss Prot Q9H8M2; SEQ ID NO:1 mgsshhhhhhenlyfq/gdykddddkgslevlfqg/[…] […]) was cloned, expressed, purified, and then treated with TEV protease. Cleaved His tag was removed by purification. The binding of a biotinylated small molecule ligand of BRD9 was assessed via the LANCE® TR-FRET platform (PerkinElmer), and the compounds were assayed for inhibitory activity against this interaction.
Results: A mixture of biotinylated-ligand and SureLight™ Allophycocyanin-Streptavidin (APC-SA, PerkinElmer AD0201) in 50 mM HEPES (pH 7.4), 50 mM NaCl, 1 mM TCEP (pH 7), 0.01% (v/v) Tween-20, 0.01% (w/v) bovine serum albumin was added to a white 384-well PerkinElmer Proxiplate Plus plate. DMSO or 3-fold serially diluted compounds were then added to the Proxiplate followed by addition of Flag-BRD9. After a 10-minute incubation at room temperature, Eu-W1024 anti-FLAG (PerkinElmer, AD0273) was added. The final reaction mixture that contained 3.75 nM biotinylated ligand, 3 nM Flag-BRD9, 7.5 nM SureLight™ Allophycocyanin-Streptavidin, and 0.2 nM Eu-W1024 anti-FLAG was incubated at room temperature for 90 minutes.
The plates were then read on a PerkinElmer Envision plate reader to determine the ratio of emission at 665 nm over 615 nm. […]

[2] = biological target: T2, Nanoluciferase-BRD9 fusion protein (3×FLAG-NLuc-BRD9) in SYO-1 cells (Homo sapiens, UniProt Q9H8M2); experiment: SYO1 BRD9 NanoLuc Degradation Assay; type: cell-based; details: 6 hours; SYO-1 cells expressing 3×FLAG-NLuc-BRD9; top dose 1 μM; read-out: SYO1 BRD9-NanoLuc degradation IC50
T2 construct: expressed in transfected cells; host or cells: SYO-1
T2 sequence (Q9H8M2 1-597): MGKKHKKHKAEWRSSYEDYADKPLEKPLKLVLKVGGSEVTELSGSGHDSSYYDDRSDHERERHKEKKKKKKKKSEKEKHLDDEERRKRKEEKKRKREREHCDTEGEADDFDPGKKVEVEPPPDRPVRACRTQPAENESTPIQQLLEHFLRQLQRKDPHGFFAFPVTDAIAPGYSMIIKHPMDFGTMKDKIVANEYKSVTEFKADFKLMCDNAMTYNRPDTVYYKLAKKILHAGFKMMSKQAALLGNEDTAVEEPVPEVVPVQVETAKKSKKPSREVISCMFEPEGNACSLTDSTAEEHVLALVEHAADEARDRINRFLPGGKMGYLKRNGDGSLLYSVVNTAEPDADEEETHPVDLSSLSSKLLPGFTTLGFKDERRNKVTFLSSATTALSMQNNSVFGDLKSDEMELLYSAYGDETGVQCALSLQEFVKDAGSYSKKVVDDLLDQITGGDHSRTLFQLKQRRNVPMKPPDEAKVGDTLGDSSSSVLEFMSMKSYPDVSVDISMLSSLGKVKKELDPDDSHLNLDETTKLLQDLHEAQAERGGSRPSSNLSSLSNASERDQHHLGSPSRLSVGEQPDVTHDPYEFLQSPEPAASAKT
Procedure, shortened: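 NanoLuc signal, read by Nano-Glo luminescence after 6 h compound exposure, gives % inhibition against DMSO-treated cells (high control) and cells given 1 μM of a standard BRD9 degrader (low control). Test compounds ran as 10-point 3-fold series, top 1 μM final, in duplicate on SYO-1 cells stably expressing 3×FLAG-NLuc-BRD9.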

IC50 [1] | DC50 [2] | SMILES
< 10 nM | < 10 nM | COc1cc(-c2cn(C)c(=O)c3cnc(N(C)C)cc23)cc(OC)c1CN1CCC2(CC1)CN(C(=O)CCCCOc1ccc3c(c1)C(=O)N(C1CCC(=O)NC1=O)C3=O)CCO2 (stereo not drawn) [Compound D19, 5-((5-(9-(4-(6-(dimethylamino)-2-methyl-1-oxo-1,2-dihydro-2,7-naphthyridin-4-yl)-2,6-dimethoxybenzyl)-1-oxa-4,9-diazaspiro[5.5]undecan-4-yl)-5-oxopentyl)oxy)-2-(2,6-dioxopiperidin-3-yl)isoindoline-1,3-dione formic acid]
< 10 nM | < 10 nM | COc1cc(-c2cn(C)c(=O)c3cnc(N(C)C)cc23)cc(OC)c1CN1CCC(CCN2CCN(c3ccc4c(c3)C(=O)N(C3CCC(=O)NC3=O)C4=O)CC2)CC1 (stereo not drawn) [Compound D20, 5-(4-(2-(1-(4-(6-(dimethylamino)-2-methyl-1-oxo-1,2-dihydro-2,7-naphthyridin-4-yl)-2,6-dimethoxybenzyl)piperidin-4-yl)ethyl)piperazin-1-yl)-2-(2,6-dioxopiperidin-3-yl)isoindoline-1,3-dione formic acid]
< 10 nM | < 10 nM | COc1cc(-c2cn(C)c(=O)c3cnc(N(C)C)cc23)cc(OC)c1CN(C)CCOCCN1CCN(c2ccc3c(c2)C(=O)N(C2CCC(=O)NC2=O)C3=O)CC1 (stereo not drawn) [Compound D21, 5-[4-(2-[2-[([4-[6-(dimethylamino)-2-methyl-1-oxo-2,7-naphthyridin-4-yl]-2,6-dimethoxyphenyl]methyl)(methyl)amino]ethoxy]ethyl)piperazin-1-yl]-2-(2,6-dioxopiperidin-3-yl)isoindole-1,3-dione]
≥ 10 nM | ≥ 100 nM | COc1cc(-c2cn(C)c(=O)c3cnc(N(C)CCOCCOCCNc4ccc5c(c4)C(=O)N(C4CCC(=O)NC4=O)C5=O)cc23)cc(OC)c1CN(C)C (stereo not drawn) [Compound D22, 5-[10-(5-[4-[(dimethylamino)methyl]-3,5-dimethoxyphenyl]-7-methyl-8-oxo-2,7-naphthyridin-3-yl)-4,7-dioxa-1,10-diazaundecan-1-yl]-2-(2,6-dioxopiperidin-3-yl)isoindole-1,3-dione formic acid]
≥ 10 nM | ≥ 10 nM | COc1cc(-c2cn(C)c(=O)c3cc(NCCOCCOCCNc4cccc5c4C(=O)N(C4CCC(=O)NC4=O)C5=O)ncc23)cc(OC)c1CN(C)C (stereo not drawn) [Compound D24, 4-[[2-(2-[2-[(8-[4-[(dimethylamino)methyl]-3,5-dimethoxyphenyl]-6-methyl-5-oxo-2,6-naphthyridin-3-yl)amino]ethoxy]ethoxy)ethyl]amino]-2-(2,6-dioxopiperidin-3-yl)isoindole-1,3-dione]
≥ 1000 nM | ≥ 100 nM | COc1cc(-c2cn(C)c(=O)c3cc(NCCCCCOc4cccc5c4C(=O)N(C4CCC(=O)NC4=O)C5=O)ncc23)c(OC)cc1CN(C)C (stereo not drawn) [Compound D25, 4-((5-((8-(4-((dimethylamino)methyl)-2,5-dimethoxyphenyl)-6-methyl-5-oxo-5,6-dihydro-2,6-naphthyridin-3-yl)amino)pentyl)oxy)-2-(2,6-dioxopiperidin-3-yl)isoindoline-1,3-dione]
≥ 10 nM | ≥ 10 nM | COc1cc(-c2cn(C)c(=O)c3cc(NCC(=O)NCCCCCOc4cccc5c4C(=O)N(C4CCC(=O)NC4=O)C5=O)ncc23)cc(OC)c1CN(C)C (stereo not drawn) [Compound D26, 2-[(8-[4-[(dimethylamino)methyl]-3,5-dimethoxyphenyl]-6-methyl-5-oxo-2,6-naphthyridin-3-yl)amino]-N-(5-[[2-(2,6-dioxopiperidin-3-yl)-1,3-dioxoisoindol-4-yl]oxy]pentyl) acetamide]
< 10 nM | < 10 nM | COc1cc(-c2cn(C)c(=O)c3cnc(N(C)C)cc23)cc(OC)c1CN1CCC2(CC1)CN(C(=O)CCCCOc1cccc3c1C(=O)N(C1CCC(=O)NC1=O)C3=O)CCO2 (stereo not drawn) [Compound D27, 4-((5-(9-(4-(6-(dimethylamino)-2-methyl-1-oxo-1,2-dihydro-2,7-naphthyridin-4-yl)-2,6-dimethoxybenzyl)-1-oxa-4,9-diazaspiro[5.5]undecan-4-yl)-5-oxopentyl)oxy)-2-(2,6-dioxopiperidin-3-yl)isoindoline-1,3-dione formic acid]
< 10 nM | < 10 nM | COc1cc(-c2cn(C)c(=O)c3cnc(N(C)C)cc23)cc(OC)c1CN1CC(S(=O)(=O)NCCN2CCN(c3ccc4c(c3)C(=O)N(C3CCC(=O)NC3=O)C4=O)CC2)C1 (stereo not drawn) [Compound D28, 1-([4-[6-(dimethylamino)-2-methyl-1-oxo-2,7-naphthyridin-4-yl]-2,6-dimethoxyphenyl]methyl)-N-(2-[4-[2-(2,6-dioxopiperidin-3-yl)-1,3-dioxoisoindol-5-yl]piperazin-1-yl]ethyl)azetidine-3-sulfonamide]
< 10 nM | < 10 nM | CNc1cc2c(=O)n(C)cc(-c3cc(OC)c(CN4CCN(C(=O)COc5cccc6c5C(=O)N(C5CCC(=O)NC5=O)C6=O)CC4)c(OC)c3)c2cn1 (stereo not drawn) [Compound D29, 4-[2-[4-([2,6-dimethoxy-4-[2-methyl-7-(methylamino)-1-oxo-2,6-naphthyridin-4-yl]phenyl]methyl)piperazin-1-yl]-2-oxoethoxy]-2-(2,6-dioxopiperidin-3-yl)isoindole-1,3-dione]
< 10 nM | < 10 nM | CNc1cc2c(=O)n(C)cc(-c3cc(OC)c(CN4CCC(CCN5CCN(c6ccc7c(c6)C(=O)N(C6CCC(=O)NC6=O)C7=O)CC5)CC4)c(OC)c3)c2cn1 (stereo not drawn) [Compound D30, 5-(4-[2-[1-([2,6-dimethoxy-4-[2-methyl-7-(methylamino)-1-oxo-2,6-naphthyridin-4-yl]phenyl]methyl)piperidin-4-yl]ethyl]piperazin-1-yl)-2-(2,6-dioxopiperidin-3-yl)isoindole-1,3-dione formic acid]
≥ 10 nM | ≥ 100 nM | COc1cc(-c2cn(C)c(=O)c3cnc(N(C)CCOCCOCCNc4cccc5c4C(=O)N(C4CCC(=O)NC4=O)C5=O)cc23)cc(OC)c1CN(C)C (stereo not drawn) [Compound D31, 4-[10-(5-[4-[(dimethylamino)methyl]-3,5-dimethoxyphenyl]-7-methyl-8-oxo-2,7-naphthyridin-3-yl)-4,7-dioxa-1,10-diazaundecan-1-yl]-2-(2,6-dioxopiperidin-3-yl)isoindole-1,3-dione]

— patent publication US12391686B2, “Compounds and uses thereof” (Foghorn Therapeutics Inc., priority 2019, dated 2025)
